Test results from article PMC10961359, “Targeting hexokinase 2 for oral cancer therapy: structure-based design and validation of lead compounds” (Frontiers in Pharmacology, 2024).
Entries after “also recorded” stand apart in the source; their conditions may differ. Read-outs that look alike come from different tables or passages of the source.

How the values were obtained:
HK2 [1] = biological target: T1, HK2 (Homo sapiens, UniProt P52789); test: HK2 enzyme inhibition assay (Abcam kit ab211114); assay type: biochemical; conditions: read-out: % inhibition of HK2 enzyme activity at 50 µM
T1 construct: purchased Abcam ab211114
T1 sequence (P52789 1-917): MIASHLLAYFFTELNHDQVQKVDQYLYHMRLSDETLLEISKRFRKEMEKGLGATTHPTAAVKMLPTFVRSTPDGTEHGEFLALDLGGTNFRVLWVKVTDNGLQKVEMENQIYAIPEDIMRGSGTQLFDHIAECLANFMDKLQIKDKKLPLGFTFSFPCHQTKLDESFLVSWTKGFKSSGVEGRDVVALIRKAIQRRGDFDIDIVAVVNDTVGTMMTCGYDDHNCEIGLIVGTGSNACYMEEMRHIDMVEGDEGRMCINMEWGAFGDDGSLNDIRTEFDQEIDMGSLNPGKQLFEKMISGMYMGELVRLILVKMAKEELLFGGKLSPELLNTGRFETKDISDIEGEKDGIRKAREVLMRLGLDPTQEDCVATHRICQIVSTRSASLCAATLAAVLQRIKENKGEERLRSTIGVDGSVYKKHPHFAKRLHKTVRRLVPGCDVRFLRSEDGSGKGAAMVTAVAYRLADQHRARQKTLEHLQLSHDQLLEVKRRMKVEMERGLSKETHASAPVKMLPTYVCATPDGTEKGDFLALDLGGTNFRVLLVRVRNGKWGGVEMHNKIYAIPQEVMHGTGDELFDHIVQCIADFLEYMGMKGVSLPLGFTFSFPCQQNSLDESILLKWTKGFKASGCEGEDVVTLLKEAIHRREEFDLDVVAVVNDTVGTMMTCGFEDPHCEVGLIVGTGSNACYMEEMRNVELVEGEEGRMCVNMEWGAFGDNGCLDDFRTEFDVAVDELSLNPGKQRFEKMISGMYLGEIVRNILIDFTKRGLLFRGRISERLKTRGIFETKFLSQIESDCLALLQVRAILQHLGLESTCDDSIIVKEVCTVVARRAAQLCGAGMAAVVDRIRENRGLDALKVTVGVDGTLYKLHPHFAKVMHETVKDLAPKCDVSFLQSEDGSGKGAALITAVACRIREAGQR
Method: The HK2 enzyme inhibition assay was performed using an HK2 inhibitor assay kit (Abcam, ab211114) according to the manufacturer’s instructions. Initially, 50 µM compound concentration was used to perform the enzyme activity inhibition studies, after which IC50 of the top leads were determined.
(§1) The hits derived from the docking study were sourced from either commercial suppliers or pre-existing compounds within our laboratory or were synthesized anew. The FaDu and Cal27 oral cancer cells were treated with the compounds for 72 h at concentrations of 3, 10, 30, and 100 μM. A post-treatment MTT assay was done to evaluate their antiproliferative activity. Table S2 represents the anti-proliferative and enzyme inhibitory activity of the compounds obtained as hits from the structure-based drug design strategy. […] Consequently, 50 μM of all the hit compounds were evaluated for their HK2 enzyme inhibitory activity. 50 μM of compounds were incubated with HK2 protein and the rate of reaction was assessed in kinetic mode (rate of conversion of NAD to NADH). The choice of 50 μM concentration was based primarily on MTT assays and GI50 calculation. The average GI50 values of the hit compounds against less sensitive FaDu cell line was approximately 50 μM. Considering this information, we reasoned that utilizing a concentration equivalent to the average GI50 would allow us to assess the maximum inhibitory effect of the compounds on HK2 enzyme activity. […] The same compounds have been previously reported by our team to have EGFR phosphorylation inhibitory potential and were coded as H2 (compound 14) and H10 (compound 11) ([Chakraborty et al., 2022]). […] Figures 1C,D show the lead compounds H2 and H10 at the active site of HK2 enzyme interacting via H-bonds with the amino acid residues.

FaDu oral cancer cells = test: MTT antiproliferative assay, FaDu; assay type: cell-based; conditions: for GI50: Homo sapiens, FaDu, read-out: GI50 for FaDu
Method: (§2) FaDu cell line was cultured in RPMI-1640 medium containing L-glutamine (300 mg/L) and sodium bicarbonate (2 g/L), while Cal27, HEK293 and HFF-1 cell lines were cultured in DMEM medium containing glucose (4.5 g/L), L-glutamine (584 mg/L) and sodium bicarbonate (3.7 g/L). For gene expression and qPCR studies, RNA isolation was performed using Trizol (Thermo). The reagents and the primer sequences employed for the qPCR assays have been described previously ([Chakraborty et al., 2022]).
as §1

Cal27 cells = test: 2-NBDG glucose uptake assay (flow cytometry), Cal27; assay type: cell-based; conditions: Cal27, 10 μM and 30 μM, 72 h, vs DMSO control
Method: (§3) FaDu and Cal27 cells were treated with test compounds (0.2 million cells per treatment) and were incubated for 1 h with 100 μM of 2-NBDG (Invitrogen, N13195), in glucose free medium, washed with ice-cold PBS, and re-suspended in 500 μL of PBS and maintained on ice to perform flow cytometric analyses within 30 min. The mean fluorescent intensity (MFI) readout reflects the amount of fluorescent glucose analog taken up by the cells, providing insight into their glucose uptake capacity. The percent (%) cell population positive for glucose uptake (shown with a right shift of the histogram peaks) were also plotted for both the cell lines. For MMP analysis, cells were incubated with 200 nM of TMRE (Invitrogen, T669) for 30 min. For each measurement, data was collected for 10,000 events using a BD FACS Aria III (Becton Dickinson, San Jose, CA) instrument.
(§4) 2-[N-(7-Nitrobenz-2-oxa-1,3-diaxol-4-yl) amino]-2-deoxyglucose (2-NBDG) uptake into cells happens via glucose transporters and post uptake 2-NBDG gets phosphorylated by hexokinases. Since cancer cells represent higher glycolytic activity, the inhibition of HK2 activity in cancer cells is actively reflected in the inhibition of 2-NBDG uptake ([Hung et al., 2022]; [Li et al., 2022]). […] In this assay, the MFI of intracellular 2-NBDG serves as a quantitative measure of cellular glucose uptake. […] This finding is further supported by the increased % population of 2-NBDG positive cells in Cal27 cells compared to FaDu cells (Figure 3).

Cal27 oral cancer cells = test: MTT antiproliferative assay, Cal27; assay type: cell-based; conditions: Homo sapiens, read-out: GI50 for Cal27
Method: as §2, §1

FaDu cells = test: 2-NBDG glucose uptake assay (flow cytometry), FaDu; assay type: cell-based; conditions: 10 μM and 30 μM, 72 h, vs DMSO control
Method: as §3, §4

HK2 [2] = biological target: T1, HK2; conditions: ref Liu and Liu, 2022; read-out: IC50 as reported against HK2; cited from earlier work

In the case of `O=C(O)C(=O)CBr` [Compound 1, 3-Bromo pyruvic acid], the inhibition at 50 µM (HK2 [1]) is reported as 88.2%, the GI50 (FaDu oral cancer cells; 72 h) is reported as 23.9 µM and the “2-NBDG MFI” value (Cal27 cells) is reported as “significant reduction”. For the same compound, the GI50 (Cal27 oral cancer cells; CAL-27, 72 h) was 36.4 µM, the “2-NBDG MFI” value (FaDu cells) was “significant reduction” and the IC50 (HK2 [2]) was less than 5 µM.
In the case of `O=CC[C@@H](O)[C@H](O)[C@H](O)CO` [Compound 15, 2-Deoxy Glucose], the GI50 (FaDu oral cancer cells; MTT, 72 h treatment, mean ± SEM) is reported as greater than 100 µM, the “GI50 for FaDu” value (FaDu oral cancer cells; MTT, 72 h treatment, mean ± SEM, listed as 2-DG) is reported as “no efficacy; also recorded: limited efficacy” and the “2-NBDG MFI” value (Cal27 cells) is reported as “significant reduction”. The GI50 (Cal27 oral cancer cells; CAL-27, MTT, 72 h treatment, mean ± SEM) was 77.6 µM and the “2-NBDG MFI” value (FaDu cells) was “significant reduction”.
